# Biological target: VEGFR2 (Homo sapiens (Human), UniProt P35968)
# Assay: VEGFR2 Kinase Assay (biochemical KDR kinase assay, poly-Glu-Tyr ELISA)
# Conditions: for IC50: purified cytoplasmic domain KDR protein, 2.7 μM ATP, 15 minute incubation at 30° C., read-out: VEGFR2 Enzyme IC50; for VEGFR2 potency as shown in this assay (in words): statement in words on the Table 2 data
# Protocol: Biochemical KDR kinase assays were performed in 96 well microtiter plates that were coated overnight with 75 μg/well of poly-Glu-Tyr (4:1) in 10 mM Phosphate Buffered Saline (PBS), pH 7.4. The coated plates were washed with 2 mLs per well PBS+0.05% Tween-20 (PBS-T), blocked by incubation with PBS containing 1% BSA, then washed with 2 mLs per well PBS-T prior to starting the reaction. Reactions were carried out in 100 μL reaction volumes containing 2.7 μM ATP in kinase buffer (50 mM Hepes buffer pH 7.4, 20 mM MgCl2, 0.1 mM MnCl2 and 0.2 mM Na3VO4). […] Reactions were initiated by the addition 20 ul per well of kinase buffer containing 200-300 ng purified cytoplasmic domain KDR protein (BPS Bioscience, San Diego, Calif.). Following a 15 minute incubation at 30° C., the reactions were washed 2 mLs per well PBS-T. 100 μl of a monoclonal anti-phosphotyrosine antibody-peroxidase conjugate diluted 1:10,000 in PBS-T was added to the wells for 30 minutes. Following a 2 mLs per well wash with PBS-Tween-20, 100 μl of O-Phenylenediamine Dihydrochloride in phosphate-citrate buffer, containing urea hydrogen peroxide, was added to the wells for 7-10 minutes as a colorimetric substrate for the peroxidase. The reaction was terminated by the addition of 100 μl of 2.5N H2SO4 to each well and read using a microplate ELISA reader set at 492 nm. IC50 values for compound inhibition were calculated directly from graphs of optical density (arbitrary units) versus compound concentration following subtraction of blank values.
# Sequence of VEGFR2 (P35968 786-1356): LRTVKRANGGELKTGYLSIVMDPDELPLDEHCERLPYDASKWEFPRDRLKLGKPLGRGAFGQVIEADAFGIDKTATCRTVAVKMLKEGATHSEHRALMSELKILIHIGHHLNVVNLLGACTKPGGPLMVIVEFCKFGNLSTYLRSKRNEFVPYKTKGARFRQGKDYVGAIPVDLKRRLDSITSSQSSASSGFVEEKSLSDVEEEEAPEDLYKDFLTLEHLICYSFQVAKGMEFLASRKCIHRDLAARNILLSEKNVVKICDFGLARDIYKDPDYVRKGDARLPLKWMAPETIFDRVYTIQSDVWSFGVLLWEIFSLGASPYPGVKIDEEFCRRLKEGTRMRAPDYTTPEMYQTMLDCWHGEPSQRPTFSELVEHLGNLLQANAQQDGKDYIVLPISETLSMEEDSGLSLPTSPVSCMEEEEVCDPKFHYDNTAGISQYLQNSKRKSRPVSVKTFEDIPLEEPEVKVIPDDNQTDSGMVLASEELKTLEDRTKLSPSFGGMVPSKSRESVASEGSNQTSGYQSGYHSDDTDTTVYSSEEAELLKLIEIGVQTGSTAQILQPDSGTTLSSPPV
Structure (SMILES),IC50,VEGFR2 potency as shown in this assay (in words)
"CNc1ccc(C2CN=C3c4ccc(C(=O)OC)cc4NC(=O)N3C2)cc1 (stereo not drawn) [Example 18, Methyl 3-[4-(methylamino)phenyl]-6-oxo-3,4,6,7-tetrahydro-2H-pyrimido[1,2-c]quinazoline-9-carboxylate]",> 10000 nM,–
"COC(=O)c1ccc2c(c1)NC(=O)N1CC(c3ccc(N(C)C(=O)Nc4cc(C(F)(F)F)ccc4F)cc3)CN=C21 (stereo not drawn) [Example 21, Methyl 3-{4-[({[2-fluoro-5-(trifluoromethyl)phenyl]amino}carbonyl)(methyl)amino]phenyl}-6-oxo-3,4,6,7-tetrahydro-2H-pyrimido[1,2-c]quinazoline-9-carboxylate]",> 10000 nM,–
"Nc1ccc(C2CN=C3c4ccccc4NC(=O)N3C2)cc1 (stereo not drawn) [Example 4, 3-(4-Aminophenyl)-2,3,4,7-tetrahydro-6H-pyrimido[1,2-c]quinazolin-6-one]",> 10000 nM,–
"Cc1cccc(NC(=O)Nc2ccc(C3CN=C4c5ccccc5NC(=O)N4C3)cc2)c1 (stereo not drawn) [Example 10, 1-(3-Methylphenyl)-3-[4-(6-oxo-3,4,6,7-tetrahydro-2H-pyrimido[1,2-c]quinazolin-3-yl)phenyl]urea]",330 nM,excellent VEGFR2 potency
"O=C(Nc1ccc(C2CN=C3c4ccccc4NC(=O)N3C2)cc1)Nc1ccc(Cl)c(C(F)(F)F)c1 (stereo not drawn) [Example 7, 1-[4-Chloro-3-(trifluoromethyl)phenyl]-3-[4-(6-oxo-3,4,6,7-tetrahydro-2H-pyrimido[1,2-c]quinazolin-3-yl)phenyl]urea]",340 nM,excellent VEGFR2 potency
"O=C(Nc1ccc(C2CN=C3c4ccccc4NC(=O)N3C2)cc1)Nc1cccc(Br)c1 (stereo not drawn) [Example 9, 1-(3-Bromophenyl)-3-[4-(6-oxo-3,4,6,7-tetrahydro-2H-pyrimido[1,2-c]quinazolin-3-yl)phenyl]urea]",250 nM,excellent VEGFR2 potency
"Cc1cc(N)ccc1C1CN=C2c3ccccc3NC(=O)N2C1 (stereo not drawn) [Example 23, 3-(4-amino-2-methylphenyl)-2,3,4,7-tetrahydro-6H-pyrimido[1,2-c]quinazolin-6-one]",> 10000 nM,–
"Nc1cccc(C2CN=C3c4ccccc4NC(=O)N3C2)c1 (stereo not drawn) [Example 2, 3-(3-Aminophenyl)-2,3,4,7-tetrahydro-6H-pyrimido[1,2-c]quinazolin-6-one]",> 10000 nM,–
"CN1CCN(CC(=O)Nc2ccc(C3CN=C4c5ccccc5NC(=O)N4C3)cc2)CC1 (stereo not drawn) [Example 20, 2-(4-Methylpiperazin-1-yl)-N-[4-(6-oxo-3,4,6,7-tetrahydro-2H-pyrimido[1,2-c]quinazolin-3-yl)phenyl]acetamide]",> 10000 nM,lack of potency
"O=C(Nc1ccccc1)Nc1ccc(C2CN=C3c4ccccc4NC(=O)N3C2)cc1 (stereo not drawn) [Example 6, 1-[4-(6-Oxo-3,4,6,7-tetrahydro-2H-pyrimido[1,2-c]quinazolin-3-yl)phenyl]-3-phenylurea]",4750 nM,–
"Cc1ccc(NC(=O)Nc2ccc(C3CN=C4c5ccccc5NC(=O)N4C3)cc2)cc1 (stereo not drawn) [Example 11, 1-(4-Methylphenyl)-3-[4-(6-oxo-3,4,6,7-tetrahydro-2H-pyrimido[1,2-c]quinazolin-3-yl)phenyl]urea]",4030 nM,–
"Cc1ccoc1C(=O)Nc1ccc(C2CN=C3c4ccccc4NC(=O)N3C2)cc1 (stereo not drawn) [Example 16, 3-Methyl-N-[4-(6-oxo-3,4,6,7-tetrahydro-2H-pyrimido[1,2-c]quinazolin-3-yl)phenyl]-2-furamide]",> 10000 nM,–
"COc1cccc(NC(=O)Nc2ccc(C3CN=C4c5ccccc5NC(=O)N4C3)cc2)c1 (stereo not drawn) [Example 13, 1-(3-Methoxyphenyl)-3-[4-(6-oxo-3,4,6,7-tetrahydro-2H-pyrimido[1,2-c]quinazolin-3-yl)phenyl]urea]",1470 nM,–
"O=C(Nc1ccc(C2CN=C3c4ccccc4NC(=O)N3C2)cc1)c1cccc(C(F)(F)F)c1 (stereo not drawn) [Example 17, N-[4-(6-oxo-3,4,6,7-tetrahydro-2H-pyrimido[1,2-c]quinazolin-3-yl)phenyl]-3-(trifluoromethyl)benzamide]",> 10000 nM,–
"Cc1cccc(NC(=O)Nc2ccc(C3CN=C4c5ccccc5NC(=O)N4C3)c(C)c2)c1 (stereo not drawn) [Example 24, 1-[3-methyl-4-(6-oxo-3,4,6,7-tetrahydro-2H-pyrimido[1,2-c]quinazolin-3-yl)phenyl]-3-(3-methylphenyl)urea]",1500 nM,–
"O=C(Nc1cccc(C2CN=C3c4ccccc4NC(=O)N3C2)c1)Nc1cc(C(F)(F)F)ccc1F (stereo not drawn) [Example 3, 1-[2-Fluoro-5-(trifluoromethyl)phenyl]-3-[3-(6-oxo-3,4,6,7-tetrahydro-2H-pyrimido[1,2-c]quinazolin-3-yl)phenyl]urea]",760 nM,excellent VEGFR2 potency
"O=C1Nc2ccccc2C2=NCC(c3ccc(Cl)cc3)CN12 (stereo not drawn) [Example 1, 3-(4-Chlorophenyl)-2,3,4,7-tetrahydro-6H-pyrimido[1,2-c]quinazolin-6-one]",> 10000 nM,–
"CSc1cccc(NC(=O)Nc2ccc(C3CN=C4c5ccccc5NC(=O)N4C3)cc2)c1 (stereo not drawn) [Example 8, 1-[3-(Methylthio)phenyl]-3-[4-(6-oxo-3,4,6,7-tetrahydro-2H-pyrimido[1,2-c]quinazolin-3-yl)phenyl]urea]",1800 nM,–
"COC(=O)c1ccc2c(c1)NC(=O)N1CC(c3ccc(N(C)C(=O)CN4CCN(C)CC4)cc3)CN=C21 (stereo not drawn) [Example 19, Methyl 3-(4-{methyl[(4-methylpiperazin-1-yl)acetyl]amino}phenyl)-6-oxo-3,4,6,7-tetrahydro-2H-pyrimido[1,2-c]quinazoline-9-carboxylate]",> 10000 nM,lack of potency
"CC(C)NC(=O)Nc1ccc(C2CN=C3c4ccccc4NC(=O)N3C2)cc1 (stereo not drawn) [Example 14, 1-Isopropyl-3-[4-(6-oxo-3,4,6,7-tetrahydro-2H-pyrimido[1,2-c]quinazolin-3-yl)phenyl]urea]",–,lack of potency
"COc1ccc(NC(=O)Nc2ccc(C3CN=C4c5ccccc5NC(=O)N4C3)cc2)cc1 (stereo not drawn) [Example 12, 1-(4-Methoxyphenyl)-3-[4-(6-oxo-3,4,6,7-tetrahydro-2H-pyrimido[1,2-c]quinazolin-3-yl)phenyl]urea]",> 10000 nM,–
"Cc1ccoc1C(=O)Nc1cccc(C2CN=C3c4ccccc4NC(=O)N3C2)c1 (stereo not drawn) [Example 15, 3-Methyl-N-[3-(6-oxo-3,4,6,7-tetrahydro-2H-pyrimido[1,2-c]quinazolin-3-yl)phenyl]-2-furamide]",6380 nM,excellent VEGFR2 potency
"Cc1cc(C2CN=C3c4ccccc4NC(=O)N3C2)ccc1N (stereo not drawn) [Example 22, 3-(4-amino-3-methylphenyl)-2,3,4,7-tetrahydro-6H-pyrimido[1,2-c]quinazolin-6-one]",> 10000 nM,–
"O=C(Nc1ccc(C2CN=C3c4ccccc4NC(=O)N3C2)cc1)Nc1cc(C(F)(F)F)ccc1F (stereo not drawn) [Example 5, 1-[2-Fluoro-5-(trifluoromethyl)phenyl]-3-[4-(6-oxo-3,4,6,7-tetrahydro-2H-pyrimido[1,2-c]quinazolin-3-yl)phenyl]urea]",360 nM,excellent VEGFR2 potency
"Cc1cc(NC(=O)Nc2cc(C(F)(F)F)ccc2F)ccc1C1CN=C2c3ccccc3NC(=O)N2C1 (stereo not drawn) [Example 25, 1-[2-fluoro-5-(trifluoromethyl)phenyl]-3-[3-methyl-4-(6-oxo-3,4,6,7-tetrahydro-2H-pyrimido[1,2-c]quinazolin-3-yl)phenyl]urea]",390 nM,–

# Source: patent publication US9365575B2, “Kinase inhibitors” (Allergan, Inc., priority 2012, dated 2016)
